In US6365341B1, “Stabilization of highly sensitive nucleic acid stains in aqueous solutions” (priority 2000, dated 2002):

Legend:
[1] = Dye stabilization in gels: GelStar-prestained agarose gels with additives, 6 days at 45° C., intensity of a 2.5 ng DNA band; assay type: physicochemical; conditions: GelStar in gel, 6 days in the dark
Procedure: SeaKem LE agarose gels (1% w/v, BMA Inc) were cast in 1×TAPS buffer (3-(N-tris(hydroxymethyl)methylamino)-propanesulfonic acid, 40 mM) in the presence of 1×GelStar nucleic acid stain (BMA Inc) and additives indicated in Table 1. Gels were incubated in the dark for 6 days at 45° C., and tested for the detection of DNA as follows: Gels were submerged in 1×TAPS electrophoresis buffer without dye. Then DNA was electrophoresed through the gel at 20 V/cm for one hour. The intensity of a 2.5 ng DNA band was examined by transillumination at 300 nm. The stain in the gel was considered stabilized if the fluorescence intensity of the DNA was more than 80% compared to when the gel was freshly prepared with stain. […] The quality of DNA resolution in fresh gels were recorded as “Good” when the DNA band was sharp, “Fair” when the DNA band was broad, and “Poor” when the DNA band was fuzzy.

[2] = Dyes that are stabilized by the additive TPABr: t½ in 1xTAPS buffer; conditions: 1xTAPS pH 8.2, with or without 14.6 mM TPABr; transillumination at 300 nm
[3] = buffer, pH 8.2
[4] = Dye stabilization in solution: t½ of fluorescence intensity with lambda DNA; conditions: Table 3

Molecule: CCCCCCCCCCCC[N+](C)(C)C.[Br-] [Dodecyltrimethylammonium bromide]
- Dye stabilization at 45° C. ([1]; additive 28 mM): No

Molecule: CN1CCN(c2ccc3[nH]c(-c4ccc5[nH]c(-c6ccc(O)cc6)nc5c4)nc3c2)CC1 [Hoechst 33258, Hoechst 33258 pentahydrate (bis-benzimide: BisBnz]
- effect of TPABr on the stability [2]: marginal

Molecule: CCCN(CCCN(C)C)c1cc(/C=C2/Sc3ccccc3N2C)c2ccccc2[n+]1-c1ccccc1 [SYBR Green I]
- t½ with TPABr [3]: over 100 days
- t½ without TPABr [3]: 120 h
- increase of half-life by tetramethylammonium hydroxide alone [4]: 4 fold

Molecule: CCCCC[N+](CCCCC)(CCCCC)CCCCC.[OH-] [TPAOH, Tetrapentylammonium hydroxide]
- Dye stabilization at 45° C. ([1]; additive 7.3 mM): Yes (The stain in the gel was considered stabilized if the fluorescence intensity of the DNA was more than 80% compared to when the gel was freshly prepared with stain)
- Dye stabilization at 45° C. ([1]; additive 14.6 mM): Yes (The stain in the gel was considered stabilized if the fluorescence intensity of the DNA was more than 80% compared to when the gel was freshly prepared with stain)

Molecule: CCCC[N+](CCCC)(CCCC)CCCC.[OH-] [Tetrabutylammonium hydroxide (TBAOH), Tetrabutylammonium hydroxide]
- Dye stabilization at 45° C. ([1]; additive 14.6 mM): Yes (The stain in the gel was considered stabilized if the fluorescence intensity of the DNA was more than 80% compared to when the gel was freshly prepared with stain)

Molecule: CC[n+]1c(-c2ccccc2)c2cc(N)ccc2c2ccc(N)cc21 [ethidium bromide]
- effect of TPABr on the stability [2]: marginal

Molecule: Tween-20
- Dye stabilization at 45° C. ([1]; additive 0.1% (v/v)): No
